Experimental data published in patent publication US20060281771A1, “SYNERGISTIC MODULATION OF FLT3 KINASE USING AMINOQUINOLINE AND AMINOQUINAZOLINE KINASE MODULATORS” (priority 2005, published 2006).

Tests used:
MV4-11 cells = assay: Inhibition of MV4-11 cell proliferation (CellTiterGlo, 72 h); assay type: cell-based; details: Homo sapiens; 72 h growth inhibition
Experimental: To assess the cellular potency of the FLT3 inhibitors of Formula I′, FLT3 specific growth inhibition was measured in the leukemic cell line MV4-11 (ATCC Number: CRL-9591). […] MV4-11 cells cannot grow and survive without active FLT3ITD.
To measure proliferation inhibition by test compounds, the luciferase based CellTiterGlo reagent (Promega), which quantifies total cell number based on total cellular ATP concentration, was used. Cells are plated at 10,000 cells per well in 100 ul of in RPMI media containing penn/strep, 10% FBS and 1 ng/ml GM-CSF or 1 ng/ml IL-3 for MV4-11 and Baf3 cells respectively.
Compound dilutions or 0.1% DMSO (vehicle control) are added to cells and the cells are allowed to grow for 72 hours at standard cell growth conditions (37° C., 5% CO2). For activity measurements in MV4-11 cells grown in 50% plasma, cells were plated at 10,000 cells per well in a 1:1 mixture of growth media and human plasma (final volume of 100 μL). To measure total cell growth an equal volume of CellTiterGlo reagent was added to each well, according to the manufacturer's instructions, and luminescence was quantified. Total cell growth was quantified as the difference in luminescent counts (relative light units, RLU) of cell number at Day 0 compared to total cell number at Day 3 (72 hours of growth and/or compound treatment). One hundred percent inhibition of growth is defined as an RLU equivalent to the Day 0 reading. Zero percent inhibition was defined as the RLU signal for the DMSO vehicle control at Day 3 of growth. All data points are an average of triplicate samples. […] Inhibition and IC50 data analysis was done with GraphPad Prism using a non-linear regression fit with a multiparamater, sigmoidal dose-response (variable slope) equation.
MV4-11 cells express the FLT3 internal tandem duplication mutation, and thus are entirely dependent upon FLT3 activity for growth. […] In contrast, the Baf3 cell proliferation is driven by the cytokine IL-3 and thus are used as a non-specific toxicity control for test compounds.

[1] = molecular target: T1, wild-type FLT3 phosphorylation in Baf3 FLT3 cells (Homo sapiens, UniProt P36888); assay: Cell-based FLT3 receptor ELISA; details: FLT ligand-induced FLT3 phosphorylation
T1 construct: host or cells: Baf3 (murine B cell lymphoma line)
T1 sequence (P36888 27-993): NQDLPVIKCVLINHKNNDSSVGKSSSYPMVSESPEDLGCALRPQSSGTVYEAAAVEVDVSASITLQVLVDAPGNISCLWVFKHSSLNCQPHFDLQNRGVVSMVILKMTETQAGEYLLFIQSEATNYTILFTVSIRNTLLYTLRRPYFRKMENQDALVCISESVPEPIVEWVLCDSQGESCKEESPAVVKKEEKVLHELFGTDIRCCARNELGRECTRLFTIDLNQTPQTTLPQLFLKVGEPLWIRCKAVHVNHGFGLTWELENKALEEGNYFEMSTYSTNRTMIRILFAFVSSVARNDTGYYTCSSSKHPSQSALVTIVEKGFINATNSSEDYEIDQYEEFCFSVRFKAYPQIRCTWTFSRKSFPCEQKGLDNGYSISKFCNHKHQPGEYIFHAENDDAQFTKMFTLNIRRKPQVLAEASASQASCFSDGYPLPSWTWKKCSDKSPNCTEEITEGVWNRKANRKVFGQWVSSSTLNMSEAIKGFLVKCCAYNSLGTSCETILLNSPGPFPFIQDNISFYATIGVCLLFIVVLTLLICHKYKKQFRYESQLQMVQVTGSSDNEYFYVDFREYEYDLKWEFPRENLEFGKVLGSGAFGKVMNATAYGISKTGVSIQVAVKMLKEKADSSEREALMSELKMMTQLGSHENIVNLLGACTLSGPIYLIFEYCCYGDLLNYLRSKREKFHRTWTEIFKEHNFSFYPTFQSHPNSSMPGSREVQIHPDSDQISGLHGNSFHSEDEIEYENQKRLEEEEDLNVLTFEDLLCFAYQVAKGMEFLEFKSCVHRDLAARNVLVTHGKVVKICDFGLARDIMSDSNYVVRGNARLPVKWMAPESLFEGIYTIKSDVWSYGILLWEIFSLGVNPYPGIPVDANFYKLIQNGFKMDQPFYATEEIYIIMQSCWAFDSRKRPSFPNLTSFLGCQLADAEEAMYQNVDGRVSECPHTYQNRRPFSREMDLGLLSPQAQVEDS
Experimental: Specific cellular inhibition of FLT ligand-induced wild-type FLT3 phosphorylation was measured in the following manner: Baf3 FLT3 cells overexpressing the FLT3 receptor were obtained from Dr. Michael Heinrich (Oregon Health and Sciences University). The Baf3 FLT3 cell lines were created by stable transfection of parental Baf3 cells (a murine B cell lymphoma line dependent on the cytokine IL-3 for growth) with wild-type FLT3. Cells were selected for their ability to grow in the absence of IL-3 and in the presence of FLT3 ligand.
Baf3 cells were maintained in RPMI 1640 with 10% FBS, penn/strep and 10 ng/ml FLT ligand at 37° C., 5% CO2. To measure direct inhibition of the wild-type FLT3 receptor activity and phosphorylation a sandwich ELISA method was developed similar to those developed for other RTKs (see Sadick, M D, Sliwkowski, M X, Nuijens, A, Bald, L, Chiang, N, Lofgren, J A, Wong W L T. Analysis of Heregulin-Induced ErbB2 Phosphorylation with a High-Throughput Kinase Receptor Activation Enzyme-Linked Immunsorbent Assay, Analytical Biochemistry. 1996; 235:207-214 and Baumann C A, Zeng L, Donatelli R R, Maroney A C. Development of a quantitative, high-throughput cell-based enzyme-linked immunosorbent assay for detection of colony-stimulating factor-1 receptor tyrosine kinase inhibitors. J Biochem Biophys Methods. 2004; 60:69-79.). 200 μL of Baf3FLT3 cells (1×10^6/mL) were plated in 96 well dishes in RPMI 1640 with 0.5% serum and 0.01 ng/mL IL-3 for 16 hours prior to 1 hour compound or DMSO vehicle incubation. Cells were treated with 100 ng/mL Flt ligand (R&D Systems Cat# 308-FK) for 10 min. at 37° C. Cells were pelleted, washed and lysed in 100 ul lysis buffer (50 mM Hepes, 150 mM NaCl, 10% Glycerol, 1% Triton-X-100, 10 mM NaF, 1 mM EDTA, 1.5 mM MgCl2, 10 mM NaPyrophosphate) supplemented with phosphatase (Sigma Cat# P2850) and protease inhibitors (Sigma Cat #P8340). Lysates were cleared by centrifugation at 1000×g for 5 minutes at 4° C. Cell lysates were transferred to white wall 96 well microtiter (Costar #9018) plates coated with 50 ng/well anti-FLT3 antibody (Santa Cruz Cat# sc-480) and blocked with SeaBlock reagent (Pierce Cat#37527). Lysates were incubated at 4° C. for 2 hours. Plates were washed 3× with 200 ul/well PBS/0.1% Triton-X-100. Plates were then incubated with 1:8000 dilution of HRP-conjugated anti-phosphotyrosine antibody (Clone 4G10, Upstate Biotechnology Cat#16-105) for 1 hour at room temperature. Plates were washed 3× with 200 ul/well PBS/0.1% Triton-X-100. Signal detection with Super Signal Pico reagent (Pierce Cat#37070) was done according to manufacturer's instruction with a Berthold microplate luminometer. All data points are an average of triplicate samples. […] Inhibition and IC50 data analysis was done with GraphPad Prism using a non-linear regression fit with a multiparamater, sigmoidal dose-response (variable slope) equation.

Row | SMILES | IC50 (MV4-11 cells) [nM] | IC50 [1] [nM]
1 | COc1cc2ncnc(N3CCC(COC(=O)Nc4ccc(C(C)C)cc4)CC3)c2cc1OC [Compound 22, (4-Isopropyl-phenyl)-carbamic acid 1-(6,7-dimethoxy-quinazolin-4-yl)-piperidin-4-ylmethyl ester] | 1700 | 82
2 | COc1cc2ncnc(N3CCC(NC(=O)Nc4ccc(N(C)C)cc4)C3)c2cc1OC (stereo not shown) [Compound 52, 1-[1-(6,7-Dimethoxy-quinazolin-4-yl)-pyrrolidin-3-yl]-3-(4-dimethylamino-phenyl)-urea] | 830 | 6600
3 | COc1cc2ncnc(N3CCC(OC(=O)Nc4ccc(OC5CCCC5)cc4)CC3)c2cc1OC [Compound 55, (4-Cyclopentyloxy-phenyl)-carbamic acid 1-(6,7-dimethoxy-quinazolin-4-yl)-piperidin-4-yl ester] | 560 | 420
4 | COc1cc2ncnc(N3CCCC(COC(=O)Nc4ccc(OC5CCCC5)cc4)C3)c2cc1OC (stereo not shown) [Compound 57, (4-Cyclopentyloxy-phenyl)-carbamic acid 1-(6,7-dimethoxy-quinazolin-4-yl)-piperidin-3-ylmethyl ester] | 172 | 46
5 | COc1cc2ncnc(N3CCC(NC(=O)Nc4ccc(OC(C)C)cc4)CC3)c2cc1OC [Compound 58, 1-[1-(6,7-Dimethoxy-quinazolin-4-yl)-piperidin-4-yl]-3-(4-isopropoxy-phenyl)-urea] | 7 | 180
6 | COc1cc2ncnc(N3CCC(NC(=O)Nc4ccc(N5CCOCC5)cc4)CC3)c2cc1OC [Compound 59, 1-[1-(6,7-Dimethoxy-quinazolin-4-yl)-piperidin-4-yl]-3-(4-morpholin-4-yl-phenyl)-urea] | 410 | 43
7 | COc1cc2ncnc(N3CCC(NC(=O)Nc4ccc(N5CCCC5)cc4)CC3)c2cc1OC [Compound 60, 1-[1-(6,7-Dimethoxy-quinazolin-4-yl)-piperidin-4-yl]-3-(4-pyrrolidin-1-yl-phenyl)-urea] | 528 | 18
8 | COc1cc2ncnc(N3CCC(NC(=O)Nc4ccc(N(C)C)cc4)CC3)c2cc1OC [Compound 62, 1-[1-(6,7-Dimethoxy-quinazolin-4-yl)-piperidin-4-yl]-3-(4-dimethylamino-phenyl)-urea] | 941 | 16
9 | CC(C)c1ccc(NC(=O)NC2CCN(c3ncnc4ccccc34)CC2)cc1 [Compound 63, 1-(4-Isopropyl-phenyl)-3-(1-quinazolin-4-yl-piperidin-4-yl)-urea] | 502 | 20
10 | COc1ccc2ncnc(N3CCC(NC(=O)Nc4ccc(C(C)C)cc4)CC3)c2c1 [Compound 64, 1-(4-Isopropyl-phenyl)-3-[1-(6-methoxy-quinazolin-4-yl)-piperidin-4-yl]-urea] | 16 | 11
11 | COc1ccc2c(N3CCC(NC(=O)Nc4ccc(C(C)C)cc4)CC3)ncnc2c1 [Compound 65, 1-(4-Isopropyl-phenyl)-3-[1-(7-methoxy-quinazolin-4-yl)-piperidin-4-yl]-urea] | 321 | 178
12 | COc1cc2ncnc(N3CCC(NC(=O)Nc4ccc(C(C)C)cc4)CC3)c2cc1OC [Compound 66, 1-[1-(6,7-Dimethoxy-quinazolin-4-yl)-piperidin-4-yl]-3-(4-isopropyl-phenyl)-urea] | 1 | 1
13 | COc1cc2ncnc(N3CCC(NC(=O)Nc4ccc(OC5CCCC5)cc4)CC3)c2cc1OC [Compound 67, 1-(4-Cyclopentyloxy-phenyl)-3-[1-(6,7-dimethoxy-quinazolin-4-yl)-piperidin-4-yl]-urea] | 470 | 1400
14 | COc1cc2ncnc(N3CCC(NC(=O)Nc4ccc(N5CCCC5)nc4)CC3)c2cc1OC [Compound 68, 1-[1-(6,7-Dimethoxy-quinazolin-4-yl)-piperidin-4-yl]-3-(6-pyrrolidin-1-yl-pyridin-3-yl)-urea] | 134 | 16
